This note sets out measurements from ChEMBL document CHEMBL1126959, “HMG-CoA reductase inhibitors: design, synthesis, and biological activity of tetrahydroindazole-substituted 3,5-dihydroxy-6-heptenoic acid sodium salts” (J Med Chem, 1993).

Test [1] concerns HepG2. The test can be described thus: Tested for ability to inhibit incorporation of [14C]acetate into cholesterol in cultured human hepatoma (HEP-G2) cells; 0.053-0.12. Format: functional, cell-based.
Test [2] deals with T1, 3-hydroxy-3-methylglutaryl-coenzyme A reductase (Rattus norvegicus, UniProt P51639).
T1 sequence (P51639 whole entry): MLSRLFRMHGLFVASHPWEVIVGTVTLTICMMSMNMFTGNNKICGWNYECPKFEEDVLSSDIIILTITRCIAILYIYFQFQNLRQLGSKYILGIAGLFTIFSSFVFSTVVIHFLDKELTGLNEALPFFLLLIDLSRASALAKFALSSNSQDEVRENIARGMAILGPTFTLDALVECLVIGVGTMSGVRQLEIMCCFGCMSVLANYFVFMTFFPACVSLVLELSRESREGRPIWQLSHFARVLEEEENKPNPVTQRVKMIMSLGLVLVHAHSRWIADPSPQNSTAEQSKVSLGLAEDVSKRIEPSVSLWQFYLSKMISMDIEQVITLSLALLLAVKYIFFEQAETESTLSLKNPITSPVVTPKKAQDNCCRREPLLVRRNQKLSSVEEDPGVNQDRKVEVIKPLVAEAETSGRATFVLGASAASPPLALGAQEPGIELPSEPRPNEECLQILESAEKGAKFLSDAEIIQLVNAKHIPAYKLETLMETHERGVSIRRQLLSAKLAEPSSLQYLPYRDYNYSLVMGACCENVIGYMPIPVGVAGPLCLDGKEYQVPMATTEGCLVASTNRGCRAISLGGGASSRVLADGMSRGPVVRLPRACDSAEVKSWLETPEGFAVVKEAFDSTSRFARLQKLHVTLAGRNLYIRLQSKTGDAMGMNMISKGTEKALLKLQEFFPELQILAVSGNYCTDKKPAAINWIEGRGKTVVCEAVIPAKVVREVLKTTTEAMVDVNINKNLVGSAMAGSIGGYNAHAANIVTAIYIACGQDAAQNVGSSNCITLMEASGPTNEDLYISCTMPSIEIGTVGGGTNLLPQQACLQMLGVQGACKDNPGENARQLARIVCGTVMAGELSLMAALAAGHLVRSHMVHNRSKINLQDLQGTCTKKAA
Description: Inhibitory activity against partially purified rat liver HMG-CoA reductase in vitro; 4.1-22.

The test system of test [3] is HepG2. The test can be described thus: Tested for ability to inhibit incorporation of [14C]acetate into cholesterol in cultured human hepatoma (HEP-G2) cells; 0.11-0.27. The format is functional, cell-based.
The target in test [4] is T1, 3-hydroxy-3-methylglutaryl-coenzyme A reductase. The test can be described thus: Inhibitory activity against partially purified rat liver HMG-CoA reductase in vitro; 0.047-0.098.
Test [5] has as its system HepG2. Description: Tested for ability to inhibit incorporation of [14C]acetate into cholesterol in cultured human hepatoma (HEP-G2) cells; 0.15-0.33. Format: functional, cell-based.
Test [6] concerns the target T1, 3-hydroxy-3-methylglutaryl-coenzyme A reductase. The test can be described thus: Inhibitory activity against partially purified rat liver HMG-CoA reductase in vitro; 0.0040-0.053.
In test [7] the test system is HepG2. The test can be described thus: Tested for ability to inhibit incorporation of [14C]acetate into cholesterol in cultured human hepatoma (HEP-G2) cells; 0.22-0.48. Format: functional, cell-based.
Test [8] addresses T1, 3-hydroxy-3-methylglutaryl-coenzyme A reductase. The test can be described thus: Inhibitory activity against partially purified rat liver HMG-CoA reductase in vitro; 0.0050-0.016.
For test [9] the target is unchanged. Description: Inhibitory activity against partially purified rat liver HMG-CoA reductase in vitro; 0.17-0.61.
For test [10], the system named is HepG2. Description: Tested for ability to inhibit incorporation of [14C]acetate into cholesterol in cultured human hepatoma (HEP-G2) cells; 2.9-4.6. Format: functional, cell-based.
Test [11] deals with T1, 3-hydroxy-3-methylglutaryl-coenzyme A reductase. Description: Inhibitory activity against partially purified rat liver HMG-CoA reductase in vitro; 2.1-54.
The target is the same in test [12]. Description: Inhibitory activity against partially purified rat liver HMG-CoA reductase in vitro; 0.015-0.51.
The test system of test [13] is HepG2. The test can be described thus: Tested for ability to inhibit incorporation of [14C]acetate into cholesterol in cultured human hepatoma (HEP-G2) cells; 0.15-1.7. Format: functional, cell-based.
Test [14] addresses T1, 3-hydroxy-3-methylglutaryl-coenzyme A reductase. Description: Inhibitory activity against partially purified rat liver HMG-CoA reductase in vitro; 1.9-5.3.
In test [15] the test system is HepG2. The test can be described thus: Tested for ability to inhibit incorporation of [14C]acetate into cholesterol in cultured human hepatoma (HEP-G2) cells; 0.046-0.17. Format: functional, cell-based.
Test [16] addresses T1, 3-hydroxy-3-methylglutaryl-coenzyme A reductase. Description: Inhibitory activity against partially purified rat liver HMG-CoA reductase in vitro; 0.0015-0.0049.
In test [17] the test system is HepG2. Description: Tested for ability to inhibit incorporation of [14C]acetate into cholesterol in cultured human hepatoma (HEP-G2) cells; 0.013-0.81. The format is functional, cell-based.
Test [18] deals with HepG2. Description: Tested for ability to inhibit incorporation of [14C]acetate into cholesterol in cultured human hepatoma (HEP-G2) cells; 1.3-2.3. The format is functional, cell-based.
In test [19] the target is T1, 3-hydroxy-3-methylglutaryl-coenzyme A reductase. Description: Inhibitory activity against partially purified rat liver HMG-CoA reductase in vitro; 0.41-0.73.
The target is the same in test [20]. The test can be described thus: Inhibitory activity against partially purified rat liver HMG-CoA reductase in vitro; 3.1-9.1.
The subject of test [21] is HepG2. The test can be described thus: Tested for ability to inhibit incorporation of [14C]acetate into cholesterol in cultured human hepatoma (HEP-G2) cells; 0.16-0.68. Format: functional, cell-based.
Test [22] has as its target T1, 3-hydroxy-3-methylglutaryl-coenzyme A reductase. The test can be described thus: Inhibitory activity against partially purified rat liver HMG-CoA reductase in vitro; 0.026-0.34.

The IC50 is the concentration at which inhibition is half-maximal. Higher therefore signals weaker potency in that assay. The compound `CC(C)n1c(/C=C/C(O)CC(O)CC(=O)O)c(-c2ccc(F)cc2)c2ccccc21` (centres undefined) [FLUVASTATIN SODIUM] showed a 50% inhibitory concentration (IC50) with HepG2 [1] of 79 nM.

In test [2], `O=C(O)C[C@H](O)C[C@H](O)/C=C/c1c2c(nn1-c1ccc(F)cc1)-c1ccccc1CC2` registered a concentration for half-maximal inhibition (IC50) of 9400 nM.

Consider `O=C(O)C[C@H](O)C[C@H](O)/C=C/c1c2c(nn1-c1ccc(F)cc1)C(Cc1ccccc1)CCC2` (some centres undefined), for which the IC50 in the test with HepG2 [3] worked out at 170 nM; in test [4] it was 68 nM.

In the case of `CC(C)c1ccc(CC2CCCc3c2nn(-c2ccc(F)cc2)c3/C=C/[C@@H](O)C[C@@H](O)CC(=O)O)cc1` (some centres undefined), the figures for the half-maximal inhibitory concentration (IC50) (in the test with HepG2 [5]; in test [6]) were 230 nM and 40 nM, respectively.

Regarding `O=C(O)C[C@H](O)C[C@H](O)/C=C/c1c2c(nn1-c1ccc(F)cc1)C(Cc1ccc3ccccc3c1)CCC2` (some centres undefined), the half-maximal inhibitory concentration (IC50) came to 330 nM in the test with HepG2 [7] and 9 nM in test [8].

In the case of `COc1ccc(CC2CCCc3c2nn(-c2ccc(F)cc2)c3/C=C/[C@@H](O)C[C@@H](O)CC(=O)O)cc1OC` (some centres undefined), the IC50 in test [9] was found to be 320 nM; in the test on HepG2 [10], 3600 nM.

In turn, `O=C(O)C[C@H](O)C[C@H](O)/C=C/c1c2c(nn1-c1ccc(F)cc1)CCC2` came in with an IC50 in [11] of 11000 nM.

For `COc1ccc(CC2CCCc3c2nn(-c2ccc(F)cc2)c3/C=C/[C@@H](O)C[C@@H](O)CC(=O)O)cc1` (some centres undefined), the IC50 in test [12] was determined as 28 nM; in the test on HepG2 [13], 500 nM.

For `CCC(C)C1CCCc2c1nn(-c1ccc(F)cc1)c2/C=C/[C@@H](O)C[C@@H](O)CC(=O)O` (some centres undefined), half-maximal inhibition in test [14] (IC50) required 3200 nM.

As for `CC(C)(C)c1ccc(CC2CCCc3c2nn(-c2ccc(F)cc2)c3/C=C/[C@@H](O)C[C@@H](O)CC(=O)O)cc1` (some centres undefined), the half-inhibitory concentration (IC50) in test [6] worked out at 14 nM; with HepG2 [15], 88 nM.

With `O=C(O)C[C@H](O)C[C@H](O)/C=C/c1c2c(nn1-c1ccc(F)cc1)C(Cc1ccc(-c3ccccc3)cc1)CCC2` (some centres undefined), the IC50 in test [16] stood at 3 nM; in the test with HepG2 [17] it was 100 nM.

In [14], `CCCC1CCCc2c1nn(-c1ccc(F)cc1)c2/C=C/[C@@H](O)C[C@@H](O)CC(=O)O` (some centres undefined) yielded an IC50 of 3400 nM.

`O=C(O)C[C@H](O)C[C@H](O)/C=C/c1c2c(nn1-c1ccc(F)cc1)C(CCc1ccccc1)CCC2` (some centres undefined): the half-inhibitory concentration (IC50) came out at 1700 nM with HepG2 [18] and 540 nM in test [19].

In test [20], `O=C(O)C[C@H](O)C[C@H](O)/C=C/c1c2c(nn1-c1ccc(F)cc1)CCCC2` showed an IC50 of 5300 nM.

Regarding `O=C(O)C[C@H](O)C[C@H](O)/C=C/c1c2c(nn1-c1ccc(F)cc1)C(Cc1ccccc1Cl)CCC2` (some centres undefined), the 50% inhibitory concentration (IC50) with HepG2 [21] worked out at 330 nM; in test [22], 95 nM.
